Experimental data as given in ChEMBL document CHEMBL5370582, “Heterolactone and Heterolactams A-M, Verticillane Diterpenoids with Anti-Inflammatory and Hepatoprotective Activities from the Soft Coral Heteroxenia ghardaqensis” (J Nat Prod, 2023).
The source made the active and inactive calls. No cut-off for these calls is given here.

Species on record: Danio rerio
Experiment: Hepatoprotective activity against isoniazid/alcohol-induced liver injury in transgenic Zebrafish larvae at 50 uM incubated for 72 hrs by fluorescence microscopy
Assay type: functional, organism-based
Settings: not given

Which Activity does the source give for `C[S+](CC[C@H](N)C(=O)[O-])C[C@H]1O[C@@H](n2cnc3c(N)ncnc32)[C@H](O)[C@@H]1O` (stereo partly drawn) here?
The Activity was “Active”.

For `CC(C)CCN1C(=O)[C@@]2(C)CC[C@H]3CC[C@H](C)CC(=O)C[C@H](C)/C=C\1[C@]2(O)C3(C)C`, which Activity is on record?
The Activity was “Active”.

How did the Activity turn out when `C[C@H]1CC[C@@H]2CCC3=C([C@@H](C[C@@H](C)CC(=O)C1)N(CCO)C3=O)C2(C)C` was run?
The Activity was “Active”.

For `C[C@H]1CC[C@@H]2CCC3=C(C2(C)C)[C@@](O)(C[C@@H](C)CC(=O)C1)NC3=O`, which Activity is on record?
The Activity was “Active”.

Species on record: Danio rerio
Experiment: Anti-inflammatory activity against CuSO4-induced inflammatory response in transgenic Zebrafish larvae assessed as reduction in number of macrophages at 20 uM pretreated for 2 hrs followed by CuSO4-stimulation and measured after 1 hr by fluorescence microscopy
Assay type: functional, organism-based
Settings: time 3.0 hrs

Which Activity does the source give for `C[C@H]1CC[C@@H]2CCC3=C([C@@H](C[C@@H](C)CC(=O)C1)N(CCO)C3=O)C2(C)C` here?
Its Activity is “Active”.

With `COc1ccc2c(c1)c(CC(=O)O)c(C)n2C(=O)c1ccc(Cl)cc1` as the compound, how does the Activity read?
The Activity was “Active”.

How did the Activity turn out when `C[C@H]1CC[C@@H]2CCC3=C(C2(C)C)[C@@](O)(C[C@@H](C)CC(=O)C1)N(CCc1ccccc1)C3=O` was run?
The Activity was “Active”.

`C[C@H]1CC[C@@H]2CCC3=C([C@@H](C[C@@H](C)CC(=O)C1)N(CCc1ccccc1)C3=O)C2(C)C` was tested. Which Activity did it give?
The Activity was “Active”.
